{"source": "patent US20030007996A1", "about": "“Therapies for the prevention and treatment of diabetes and obesity” (priority 2001, published 2003)", "key": {"soleus muscle strips": {"tested_on": "soleus muscle strips", "test": "3-O-methyl glucose transport (3MGT) in incubated soleus muscle strips (Example 12)", "type": "cell-based, rat", "conditions": "for effect on 3MGT: 10 minute incubation", "experimental": "Male Sprague-Dawley rats are used in all the following examples. Soleus muscle strips are incubated as described by Bonen et al (1992), Wilkes and Bonen (2000) and Bonen et al (1994) to determine glucose transport. Basal and insulin-stimulated 3-O-methyl glucose transport (3MGT) is examined in a dose dependent (0-10 nM) manner during a 10 minute incubation period in appropriate buffer (Bonen et al., 1994). Comparison of this dose-response relationship of insulin, and the A1 agonist CPA, and A2 agonist DPMA on 3MGT is conducted. 3MGT rates are linear for up to 20 minutes. The 10 minute period is therefore a convenient time point to acquire sufficient counts in the muscle at a reasonable cost of using radiolabelled 3MGT.\nOptimal stimulating concentrations of insulin, CPA, and DPMA are established for 3MGT."}, "Akt": {"tested_on": "Akt", "test": "Signaling protein activation in isolated rodent muscles (Example 14)", "type": "cell-based, rat", "experimental": "Experiments with insulin, CPA and DPMA are performed in isolated muscles using optimal stimulating concentrations to determine which signaling proteins are activated. For this purpose, isolated rodent muscles are incubated with either basal or maximal insulin concentrations with and without either CPA or DPMA. Glucose transport is determined by 3MGT, measured over 10 minutes. The muscle samples are analyzed for IRTK, IRS-1 associated P13 kinase, p38 MAP kinase and Akt activities. The critical exposure time to activate signaling proteins is established in pilot work. […] Optimal exposure times required for signaling protein activation by CPA and DPMA are established. […] We establish that blocking P13-kinase with LY29004 blocks downstream activation of Akt by insulin, and by CPA and DPMA."}, "[1]": {"tested_on": "A1 and A2 adenosine receptors", "test": "Adenosine receptor-stimulated adenylate cyclase activity (cAMP) in skeletal muscle homogenates (Example 4)", "type": "biochemical, rat", "experimental": "The purpose of this study was to investigate the presence of A1 and A2 adenosine receptors (AR) in rat and human skeletal muscle. Adenosine receptor-stimulated adenylate cyclase activity studies were conducted to determine cAMP responses in the presence of AR agonists using rat skeletal muscle homogenates. Subsequently, Western blotting experiments were conducted to identify the A1 and A2 receptor proteins in rodent and human skeletal muscle samples. […] There was little effect of R-PIA (an A1 AR agonist) on cAMP levels in any fiber type. […] A2a expression was highest in the liver compared to muscle and heart homogenates."}, "young, fit, adult males": {"tested_on": "young, fit, adult males", "test": "Oral glucose tolerance test (OGTT) after caffeine ingestion in lean males (Example 2)", "type": "in vivo, human", "from_the_text": "(§1) The methods and materials employed in this invention are common to those skilled in the art. The methods and materials for the hyperinsulinemic euglycemic glucose clamp test are found in Greer et al., 2001. The methods and materials for the oral glucose tolerance test (OGTT) are described in Graham et al., 2001.\nYoung, fit, adult males (n=18) underwent two oral glucose tolerance tests (OGTT). […] Following the OGTT all of these parameters increased (p≦0.05) for the duration of the OGTT. […] During the OGTT these decreased to match those of the placebo trial. […] The data support the hypothesis that caffeine ingestion impairs glucose disposal."}, "young type 1 diabetics": {"tested_on": "young type 1 diabetics", "test": "Caffeine followed by high glycemic index cereal in type 1 diabetics (Example 18)", "type": "in vivo, human", "experimental": "Young type 1 diabetics (5 females and 1 male) who had been diagnosed for an average of 8.3±5.4 years volunteered to perform two trials in a randomized, double blind study design. Subjects were given either placebo or caffeine-containing (5 mg/kg) capsules and 30 minutes later they self-administered the appropriate amount of insulin for the ingestion of 60 g of carbohydrates in the form of a high glycemic cereal with 125 ml of 1% milk. The amount of self-administered insulin and injection site were the same for both trials. Venous blood glucose was measured prior to capsule ingestion, prior to insulin injection, and immediately following ingestion of the cereal meal (t=0 minutes). Blood glucose was then measured every 15 minutes for the next 2.5 hours."}, "[2]": {"tested_on": "obese type 2 diabetic males", "test": "OGTT with and without caffeine in obese type 2 diabetic males (Example 19)", "type": "in vivo, human"}, "lean sedentary males": {"tested_on": "lean sedentary males", "test": "Hyperinsulinemic euglycemic clamp after caffeine ingestion (Example 1)", "type": "in vivo, human", "experimental": "as §1\nTrials were separated by one week. Prior to each clamp session, subjects withdrew from methylxanthine containing products for 48 hours."}, "[3]": {"tested_on": "obese (BMI>30) nondiabetic males", "test": "OGTT after caffeine ingestion in obese nondiabetic males (Example 5)", "type": "in vivo, human", "conditions": "obese males (n=4)"}, "[4]": {"tested_on": "obese and Type 2 diabetic males", "test": "OGTT with and without caffeine in lean, obese and Type 2 diabetic males (Example 8)", "type": "in vivo, human", "from_the_text": "The results will be compared to the current data base; containing data (28,40) collected in an identical fashion for 30 lean (BMI of less than 25) males age 18-30 years. Lean subjects have BMI of less than 25, the obese are class I (BMI 30-34), abdominal obese (waist circumference>100 cm) and the diabetics have the same anthropometry. The diabetics are volunteers who have been well controlled for a year, with glycosylated hemoglobin levels between 6.5-9.5% for at least three months. They have similar levels of obesity, are not insulin-dependent, and are not on oral hypoglycemic agents, but rather diet-controlled. Their participation is medically approved and they are screened for hypertension and angina. The area under the curve for insulin and C-peptide is greater for the obese and even greater for the diabetic subjects. […] Data also includes plasma catecholamines, methylxanthines, FFA, and glycerol."}, "[5]": {"tested_on": "young, sedentary, obese males", "test": "OGTT after caffeine in obese, resting males (Example 7)", "type": "in vivo, human", "conditions": "p<0.05"}, "healthy male subjects": {"tested_on": "healthy male subjects", "test": "OGTT after alkaloid caffeine, caffeinated coffee, decaffeinated coffee or placebo (Example 3)", "type": "in vivo, human", "conditions": "two hours of the OGTT; n=10", "experimental": "as §1\nVenous blood samples were taken at −30, 0 (treatment given), 60 (OGTT administered), 75, 90, 120, 150 and 180 minutes and were analyzed for glucose, insulin, C peptide, glycerol, free fatty acids and lactate. Area under the curve (AUC) were calculated for the two hours of the OGTT. […] This component acts as an adenosine receptor […]."}, "[6]": {"tested_on": "obese (BMI=30-38 kg/m2) men", "test": "OGTT after caffeine before and after a weight loss program (Example 6)", "type": "in vivo, human"}, "[7]": {"conditions": "caffeine 5 mg/kg 1 h before 75 g dextrose, p≦0.05"}, "[8]": {"conditions": "last 90 minutes of the OGTT, p≦0.05"}}}
{"compound": "OC[C@H]1O[C@@H](n2cnc3c(NC4CCCC4)ncnc32)[C@H](O)[C@@H]1O", "note": "[CPA, N6-cyclopentyladenosine]", "values": [{"measurement": "effect on 3MGT", "setting": "soleus muscle strips", "result": "increases"}]}
{"compound": "COc1cc(OC)cc(C(CNc2ncnc3c2ncn3[C@@H]2O[C@H](CO)[C@@H](O)[C@H]2O)c2ccccc2C)c1", "note": "(stereo partly shown) [DPMA, N-[2-(3,5-dimethoxy-phenyl)-2-(2-methylphenyl)ethyl]-adenosine]", "values": [{"measurement": "effect on 3MGT", "setting": "soleus muscle strips", "result": "increases"}]}
{"compound": "O=c1cc(N2CCOCC2)oc2c(-c3ccccc3)cccc12", "note": "[LY29004]", "values": [{"measurement": "effect on downstream activation of Akt by insulin, and by CPA and DPMA", "setting": "Akt", "result": "blocks"}, {"measurement": "effect on CPA- and DPMA-induced increases in 3MGT", "setting": "soleus muscle strips", "result": "inhibited"}, {"measurement": "effect on insulin stimulated 3MGT", "setting": "soleus muscle strips", "result": "inhibited"}]}
{"compound": "CCNC(=O)[C@H]1O[C@@H](n2cnc3c(N)ncnc32)[C@H](O)[C@@H]1O", "note": "[NECA]", "values": [{"measurement": "effect on cAMP production", "setting": "[1]; glycolytic samples", "result": "no effect"}, {"measurement": "increase in cAMP production", "setting": "[1]; rat oxidative muscle homogenates", "result": 7.5, "unit": "fold"}]}
{"compound": "C[C@H](Cc1ccccc1)Nc1ncnc2c1ncn2[C@@H]1O[C@H](CO)[C@@H](O)[C@H]1O", "note": "[R-PIA]", "values": [{"measurement": "effect on cAMP levels", "setting": "[1]; any fiber type", "result": "little effect"}]}
{"compound": "Cn1c(=O)c2c(ncn2C)n(C)c1=O", "note": "[caffeine]", "values": [{"measurement": "serum fatty acids, glycerol and plasma epinephrine", "setting": "young, fit, adult males; after caffeine ingestion, before OGTT, p≦0.05", "result": "increase"}, {"measurement": "serum C peptide area under the curve, greater than placebo", "setting": "young, fit, adult males; [7]", "result": 37, "unit": "%"}, {"measurement": "serum insulin area under the curve, greater than placebo", "setting": "young, fit, adult males; [7]", "result": 60, "unit": "%"}, {"measurement": "blood glucose level vs placebo", "setting": "young, fit, adult males; during OGTT", "result": "no differences between trials"}, {"measurement": "serum C peptide concentration vs placebo", "setting": "young, fit, adult males; [8]", "result": "significantly greater"}, {"measurement": "serum insulin concentration vs placebo", "setting": "young, fit, adult males; [8]", "result": "significantly greater"}, {"measurement": "AUC for GLU", "setting": "young, fit, adult males; lean males (n=18), OGTT", "result": 168, "unit": "mM/2 h"}, {"measurement": "insulin AUC", "setting": "young, fit, adult males; lean males (n=18), OGTT, placebo 3274", "result": 5242, "unit": "uU/ml/2h"}, {"measurement": "difference in the glucose area under the curve, caffeine vs placebo", "setting": "young type 1 diabetics; caffeine 5 mg/kg", "result": 72, "unit": "%"}, {"measurement": "glucose area under the curve", "setting": "young type 1 diabetics; caffeine 5 mg/kg capsules, placebo 347±7.4, p<0.01", "result": "598±7.4", "unit": "mM/2.5 h"}, {"measurement": "blood glucose", "setting": "[2]; 180 minutes following ingestion of the OGTT, caffeine 5 mg/kg, placebo 7.4±1.0", "result": "8.4 ± 0.8", "unit": "mM"}, {"measurement": "blood glucose compared with placebo", "setting": "[2]; last hour of the OGTT (120 to 180 minutes), p<0.05", "result": "significantly elevated"}, {"measurement": "decrease in carbohydrate storage compared to placebo", "setting": "lean sedentary males; caffeine 5 mg/kg", "result": 35, "unit": "%"}, {"measurement": "decrease in glucose disposal", "setting": "lean sedentary males; caffeine 5 mg/kg vs placebo", "result": 24, "unit": "%"}, {"measurement": "glucose disposal", "setting": "lean sedentary males; caffeine 5 mg/kg, placebo 8.42+/−0.63, n=9", "result": "6.38 ± 0.76", "unit": "mg/kg/min"}, {"measurement": "AUC for GLU", "setting": "[3]", "result": 167, "unit": "mM/2 h"}, {"measurement": "insulin AUC", "setting": "[3]; placebo 6938", "result": "10,968 uU/ml/2 h"}, {"measurement": "area under the curves for insulin and C-peptide following caffeine ingestion", "setting": "[4]; lean subjects", "result": "increased"}, {"measurement": "area under the curves for insulin and C-peptide following caffeine ingestion", "setting": "[4]; obese and diabetic subjects, relative to lean", "result": "even greater response"}, {"measurement": "glucose area under the curve during the OGTT", "setting": "[5]; caffeine 5 mg/kg, n=28, placebo 188.5", "result": 260.1, "unit": "mM/2h"}, {"measurement": "insulin area under the curve during the OGTT", "setting": "[5]; caffeine 5 mg/kg, n=28, placebo 7037.9", "result": 9455.8, "unit": "uIU/ml/2h"}, {"measurement": "glucose level vs placebo", "setting": "[5]; last 90 minutes of the OGTT", "result": "significantly greater"}, {"measurement": "insulin level vs placebo", "setting": "[5]; last 105 minutes of the OGTT", "result": "significantly greater"}, {"measurement": "AUC for glucose, comparison between treatments", "setting": "healthy male subjects", "result": "higher than both CC (p<0.04) and DC (p<0.01)"}, {"measurement": "AUC for insulin, comparison between treatments", "setting": "healthy male subjects", "result": "higher AUC for insulin (see FIG. 5) than both PL (p<0.002) and DC (p<0.001)"}, {"measurement": "AUC for peptide C, comparison between treatments", "setting": "healthy male subjects", "result": "higher values than both PL (p<0.02) and DC (p<0.001)"}, {"measurement": "increase in insulin during the OGTT compared to placebo", "setting": "[6]; following the twelve week intervention, p=0.056", "result": "greater"}, {"measurement": "blood glucose vs placebo", "setting": "[6]; prior to the twelve week intervention", "result": "no differences"}, {"measurement": "insulin response during the OGTT vs placebo", "setting": "[6]; prior to the twelve week intervention, caffeine 5 mg/kg, p=0.043", "result": "greater"}]}
